This note sets out measurements from ChEMBL document CHEMBL3045718, “Substituted 2-[2-(pyridin-3-yl) phenyl] acetamides and ureas: design, synthesis, and anticonvulsant screening in mice” (Med Chem Res, 2012).

Series [1] has as its system Mus musculus. The series can be described thus: Anticonvulsant activity in Mus musculus Swiss albino (mouse) assessed as protection against maximal electroshock-induced seizures at 300 mg/kg, ip measured after 4 hr post compound treatment. The format is functional, organism-based. The arrangement: dose 300 mg/kg. (The maximal electroshock test induces tonic seizures with an electrical stimulus.)

Series [2] has as its system Mus musculus. The series can be described thus: Anticonvulsant activity in Mus musculus Swiss albino (mouse) assessed as protection against maximal electroshock-induced seizures at 300 mg/kg, ip measured after 0.5 hr post compound treatment. Type of series: functional, organism-based. The arrangement: dose 300 mg/kg.
For series [3], the system named is Mus musculus. The series can be described thus: Neurotoxicity in Mus musculus Swiss albino (mouse) assessed as motor impairment at 100 mg/kg, ip measured for 1 min by rotarod test. The format is toxicity, organism-based. As to conditions: in vivo. Also noted: dose 100 mg/kg, route intraperitoneal. Background: The rotarod test checks motor coordination on a turning rod.

Series [4] deals with Mus musculus. The series can be described thus: Anticonvulsant activity in Mus musculus Swiss albino (mouse) assessed as protection against subcutaneous pentylenetetrazol-induced clonic spasms at 300 mg/kg, ip after 0.5 hr post compound treatment. The arrangement: dose 300 mg/kg. Type of series: functional, organism-based.
Series [5] has as its system Mus musculus. Briefly: Anticonvulsant activity in Mus musculus Swiss albino (mouse) assessed as protection against subcutaneous pentylenetetrazol-induced clonic spasms at 300 mg/kg, ip after 4 hr post compound treatment. The arrangement: dose 300 mg/kg. The format is functional, organism-based.
Series [6] relates to Mus musculus. The series can be described thus: Neurotoxicity in Mus musculus Swiss albino (mouse) assessed as motor impairment at 600 mg/kg, ip measured for 1 min by rotarod test. Also noted: dose 600 mg/kg, route intraperitoneal. The following applies: in vivo. Type of series: toxicity, organism-based.
Series [7] relates to Mus musculus. Briefly: Anticonvulsant activity in Mus musculus Swiss albino (mouse) assessed as protection against subcutaneous pentylenetetrazol-induced clonic spasms at 30 mg/kg, ip after 0.5 hr post compound treatment. The format is functional, organism-based. Also noted: dose 30 mg/kg.
The test system of series [8] is Mus musculus. The series can be described thus: Anticonvulsant activity in Mus musculus Swiss albino (mouse) assessed as protection against subcutaneous pentylenetetrazol-induced clonic spasms at 30 mg/kg, ip after 4 hr post compound treatment. The format is functional, organism-based. The arrangement: dose 30 mg/kg.
Series [9] is described as follows: Protective index, ratio of TD50 for neurotoxicity in Mus musculus Swiss albino (mouse) to ED50 for anticonvulsant activity in Mus musculus Swiss albino (mouse). The format is toxicity, organism-based. As to conditions: in vivo, read-out: Ratio TD50/ED50.
Series [10] has as its system Mus musculus. The series can be described thus: Anticonvulsant activity in ip dosed Mus musculus Swiss albino (mouse) assessed as protection against maximal electroshock-induced seizures measured. Type of series: functional.
The subject of series [11] is Mus musculus. The series can be described thus: Anticonvulsant activity in Mus musculus Swiss albino (mouse) assessed as protection against maximal electroshock-induced seizures at 30 mg/kg, ip measured after 4 hr post compound treatment. The format is functional, organism-based. The arrangement: dose 30 mg/kg.
For series [12], the system named is Mus musculus. The series can be described thus: Anticonvulsant activity in Mus musculus Swiss albino (mouse) assessed as protection against maximal electroshock-induced seizures at 30 mg/kg, ip measured after 0.5 hr post compound treatment. The format is functional, organism-based. The arrangement: dose 30 mg/kg.
Series [13] is described as follows: Neurotoxicity in ip dosed Mus musculus Swiss albino (mouse) assessed as motor impairment measured after 0.5 hr post compound treatment for 1 min by rotarod test. Type of series: toxicity, organism-based. As to conditions: in vivo.
Series [14] can be described thus: Protective index, ratio of TD50 for neurotoxicity in Mus musculus Swiss albino (mouse) to ED50 for anticonvulsant activity in Mus musculus Swiss albino (mouse) measured 0.5 hr post compound treatment. Type of series: toxicity, organism-based. As to conditions: in vivo, read-out: Ratio TD50/ED50.
Series [15] has as its system Mus musculus. The series can be described thus: Anticonvulsant activity in ip dosed Mus musculus Swiss albino (mouse) assessed as protection against maximal electroshock-induced seizures measured after 0.5 hr post compound treatment. Type of series: functional.

Each structure is given as a SMILES string. Active and inactive are the calls of the source. No cut-off for these calls is given here.

Consider `NC(=O)NNC(=O)Cc1ccccc1-c1cccnc1`, for which the result in [1], in series [2], in series [4] and in series [5] was inactive. Also, the Activity entry in [3] is “Non-toxic”; in [6], “Toxic”.

Consider `CCC1(c2ccccc2)C(=O)NC(=O)NC1=O` [PHENOBARBITAL], for which the result in series [7] and in [8] was Active. The Activity entry is “Non-toxic” in [3] and “Toxic” in series [6].

As for `O=C1CCCN1C(=O)Cc1ccccc1Nc1ccccc1`, in series [9], the selectivity ratio was 87.5. Besides, the Activity entry in series [3] is given as “Non-toxic”; in series [6] it was “Toxic”. For the same compound, the ED50 in [10] is 8 mg/kg.

For `NC(=S)NNC(=O)Cc1ccccc1-c1cccnc1`, the result in [1], in series [2], in [4] and in series [5] was inactive. For the same compound, the results for the Activity entry in [3] and in series [6] were “Non-toxic” and “Toxic”, respectively.

Consider `O=C1NC(=O)C(c2ccccc2)(c2ccccc2)N1` [PHENYTOIN], for which the result in series [11] and in series [12] was Active. Moreover, the Activity result in series [3] is listed as “Non-toxic”; in [6], “Toxic”.

On to `CC(C)(C)NC(=O)NCc1ccccc1-c1cccnc1`, for which the result in [1], in series [2], in [4] and in [5] was inactive. The values for the Activity entry in series [3] and in series [6] were “Non-toxic” and “Toxic”, respectively.

Consider `NC(=O)Cc1ccccc1-c1cccnc1`, for which the outcome in series [11] and in series [12] was Active. In [13], the TD50 at 0.5 hr was found to be 215 mg/kg. In series [14], the selectivity ratio at 0.5 h amounted to 26. The Activity entry in series [3] was “Non-toxic”; in series [6], “Toxic”. Moreover, the 50% effective dose (ED50) in series [15] turned out to be 8.28 mg/kg.

As to `CN1C(=O)CN=C(c2ccccc2)c2cc(Cl)ccc21` [DIAZEPAM], the outcome in series [7] and in series [8] was Active. In addition, the Activity result was “Non-toxic” in series [3] and “Toxic” in series [6].

`NC(=O)N1c2ccccc2C=Cc2ccccc21` [CARBAMAZEPINE]: the result in series [11] and in series [12] was Active. For the same compound, the Activity entry in [3] was “Non-toxic”; in [6], “Toxic”.

For the compound `O=C(NCc1ccccc1-c1cccnc1)NC1CCCCC1`, the result in series [1], in [2], in [4] and in [5] was inactive. Besides, the Activity entry in series [3] is “Non-toxic”; in series [6], “Toxic”.

What is called ED50 is the dose at which the effect has come halfway, by size or by number of responders. Broadly, the TD50 is the dose at which the toxic effect under study appears in half of the subjects.
